Source: paper PMC3235409 (Bioorganic & medicinal chemistry, 2011)

Experiments:
[1] = test system: caspase-3/7 activity in HT29 cells; assay: Caspase 3/7 activity assay; format: cell-based, human; details: HT29, 1.25 – 5 µM, 24 h
[2] = test system: HT29 cells; assay: TUNEL assay; format: cell-based, human; details: HT29, 5 µM, 48 h
[3] = test system: Akt (phospho-Akt and total Akt) in HT29 cells; assay: Western analysis of phospho-Akt and total Akt; format: cell-based, human; details: 24 h, Western blot; for effect on Akt expression and phosphorylation, 1 µM: HT29, 1 µM; for effect on Akt expression and phosphorylation: HT29, 1 or 2 µM (not specified)
[4] = test system: purified bovine brain tubulin; assay: Fluorescence-based tubulin polymerization assay; format: biochemical; details: 10 µM, cell-free

| Structure (SMILES) | caspase-3/7 activity relative to DMSO vehicle treated cells [1] | TUNEL staining (DNA fragmentation) [2] | effect on Akt expression and phosphorylation, 1 µM [3] | effect on Akt expression and phosphorylation, 2 µM ([3]; HT29, 2 µM) | effect on Akt expression and phosphorylation [3] | inhibition of the rate of microtubule polymerization ([4]; 1 h at 37 °C) | effect on microtubule formation versus vehicle control [4] |
| --- | --- | --- | --- | --- | --- | --- | --- |
| N#C[Se]CCCN1C(=O)C(=O)c2cc(Br)cc(Br)c21 [Compound 5, 5,7-Dibromo-N-(3’-selenocyanatopropyl)isatin] | significant dose dependent increases in caspase-3/7 activity |  |  |  |  |  |  |
| O=C1C(=O)N(CCCN=C=S)c2c(Br)cc(Br)cc21 [Compound 6, 5,7-Dibromo-N-(3’-isothiocyanatopropyl)isatin] | significant dose dependent increases in caspase-3/7 activity | significant number of TUNEL-positive colon cancer cells | very little effect on either expression or phosphorylation of Akt | both levels and phosphorylation state of Akt were reduced |  |  |  |
| N#CSCc1ccc(CN2C(=O)C(=O)c3cc(Br)cc(Br)c32)cc1 [Compound 11, 5,7-Dibromo-N-(p-thiocyanomethylbenzyl)isatin] | significant dose dependent increases in caspase-3/7 activity | significant number of TUNEL-positive colon cancer cells | reduced Akt protein levels and strongly suppressed the phosphorylation of Akt |  | Akt levels were reduced but the phosphorylation was virtually eliminated | about 71% |  |
| O=C1C(=O)N(Cc2ccc(CN=C=S)cc2)c2c(Br)cc(Br)cc21 [Compound 13, 5,7-Dibromo-N-(p-isothiocyanatomethylbenzyl)isatin] | significant dose dependent increases in caspase-3/7 activity |  | reduced Akt protein levels and strongly suppressed the phosphorylation of Akt |  | Akt levels were reduced but the phosphorylation was virtually eliminated |  |  |
| CC[C@]1(O)C[C@@H]2CN(CCc3c([nH]c4ccccc34)[C@@](C(=O)OC)(c3cc4c(cc3OC)N(C)[C@H]3[C@@](O)(C(=O)OC)[C@H](OC(C)=O)[C@]5(CC)C=CCN6CC[C@]43[C@@H]65)C2)C1.O=S(=O)(O)O [Vinblastine, vinblastine sulfate] |  |  |  |  |  |  | strongly inhibited microtubule formation |
| CC(=O)O[C@H]1C(=O)[C@@]2(C)[C@H]([C@H](OC(=O)c3ccccc3)[C@]3(O)C[C@H](OC(=O)[C@H](O)[C@@H](NC(=O)c4ccccc4)c4ccccc4)C(C)=C1C3(C)C)[C@]1(OC(C)=O)CO[C@@H]1C[C@@H]2O [paclitaxel] |  |  |  |  |  |  | stabilized microtubules |
